# Measured values from patent publication US10085958B2, “Bromfenac bioavailability” (BAUSCH & LOMB PHARMA HOLDINGS CORP., priority 2011, dated 2018).
# Where “and” joins values, the source holds several entries; their conditions need not be identical. Equal values may be shown once. Read-outs that look alike come from different tables or passages of the source.
# What was measured:
# [1] = Twenty-four hour ocular pharmacokinetics of ^14C-labeled bromfenac following topical instillation; type: in vivo, New Zealand White rabbit
# Description: Twenty-four hour ocular pharmacokinetics of a formulation of ^14C-labeled bromfenac following topical instillation in New Zealand White rabbit eyes was evaluated. ^14C-labeled bromfenac was analyzed to verify the radioactive purity prior to use. Dosing solutions were prepared and analyzed after dosing to confirm the radiochemical purity of the dosing solution. The radioactive concentration of the dosing solutions was calculated by liquid scintillation counting (LSC). Treatment parameters are summarized below:
# On Day 1, 50 μL of the dosing solution was topically instilled into both eyes of each animal. Animals were weighed at randomization and prior to dosing on Day 1. Animals were euthanized by an intravenous injection of a commercial euthanasia solution at 1 hour±5 minutes, 2 hours±15 minutes, 4 hours±15 minutes, 8 hours±15 minutes, 12 hours±15 minutes, or 24 hours±15 minutes following dosing. After euthanasia, each eye was rinsed with normal saline. Aqueous humor was collected from both eyes and the weight was recorded. The globes were enucleated and frozen in liquid nitrogen. The globes were stored at ≤−70° C. prior to dissection. The iris/ciliary body, lens, vitreous, retina, choroid, sclera, conjunctiva, and cornea were collected from each eye, weighed, and stored at ≤−15° C. prior to analysis. Aqueous humor samples were stored at ≤−15° C. until analyzed.
# All radioactivity measurements were performed using a Beckman Liquid Scintillation Spectrometer. The iris/ciliary body, lens, retina, choroid, sclera, conjunctiva, and cornea from each eye were weighed into combustion cones and combusted. Duplicate aliquots of each aqueous humor sample and each vitreous humor sample were transferred to LSC vials using Insta-Gel as the scintillation fluid and the amount of radioactivity was determined.
# The dosing solution was prepared by weighing 2.41 mg of ^14C-labeled bromfenac sodium and dissolving into 3 mL diluent to achieve a non-radioactive concentration of 0.7 mg/mL (0.07% w/v) bromfenac free acid, a radioactive concentration of 129.7 μCi/mL, and a pH of 7.8.
# On Day 1, 50 μL of the dosing solution was topically instilled into both eyes of each animal. The dosing solution was instilled into the conjunctival sac using a calibrated pipette, and the eyelid was held closed for 5-10 seconds following the dose. Any dosing solution found at the margin of the eyelid after dosing was recovered with a Lasik spear. The time of each dose administration was recorded.
# Animals were euthanized by an intravenous injection of a commercial euthanasia solution at 1 hour±5 minutes, 2 hours±15 minutes, 4 hours±15 minutes, 8 hours±15 minutes, 12 hours±15 minutes, or 24 hours±15 minutes following dosing.
# After euthanasia, each eye was rinsed with normal saline. Aqueous humor was collected from both eyes and the weight was recorded. The globes were enucleated and frozen in liquid nitrogen. The globes were stored at ≤−70° C. prior to dissection. The iris/ciliary body, lens, vitreous, retina, choroid, sclera, conjunctiva, and cornea were collected from each eye, weighed, and stored at ≤−15° C. prior to analysis. The start time of necropsy was recorded. Aqueous humor samples were stored at ≤−15° C. until analyzed.
# The iris/ciliary body, lens, retina, choroid, sclera, conjunctiva, and cornea from each eye were weighed into combustion cones and combusted with the exception of the left eye from Animal No. 731. The retina, choroid, and cornea from this eye were lost during processing and could not be recovered. No radioactivity data is available for these tissues.
# Combusted samples were trapped in […] (RJ Harvey) present in LSC vials and the amount of radioactivity determined by LSC. Duplicate aliquots of each aqueous humor sample (approximately 25 μL) were transferred to LSC vials and the amount of radioactivity was determined by LSC using Insta-Gel as the scintillation fluid. […]
# [2] = type: in vivo; details: for Mortality/Morbidity: animals found dead or euthanized prior to scheduled euthanasia/number in group
# [3] = Group A, 1 hr. post-dose, 0.07% pH 7.8, 50 μL per eye topical
# [4] = Group B, 2 hr. post-dose, 0.07% pH 7.8, 50 μL per eye topical
# [5] = Group C, 4 hr. post-dose, 0.07% pH 7.8, 50 μL per eye topical
# [6] = Group D, 8 hr. post-dose, 0.07% pH 7.8, 50 μL per eye topical
smiles,measurement,setting,value
Nc1c(CC(=O)O)cccc1C(=O)c1ccc(Br)cc1 [^14C-labeled Bromfenac],Radioactivity detected by LSC in the lens and the vitreous humor,[1]; 24 hour study period,very low and close to background values
same,"Radioactive residues, Total of eye tissues, Mean",[1]; [3],1.187 Percent Dose
same,"Radioactive residues, Total of eye tissues, single eyes OD/OS",[1]; [3],0.954 Percent Dose and 1.172 Percent Dose and 1.011 Percent Dose and 1.423 Percent Dose and 1.185 Percent Dose and 1.374 Percent Dose
same,"Radioactive residues, Total of eye tissues, Mean",[1]; [4],0.867 Percent Dose
same,"Radioactive residues, Total of eye tissues, single eyes OD/OS",[1]; [4],0.923 Percent Dose and 0.762 Percent Dose and 0.782 Percent Dose and 1.246 Percent Dose and 0.725 Percent Dose and 0.761 Percent Dose
same,"Radioactive residues in Conjunctiva, Mean",[1]; [5],0.142 Percent Dose
same,"Radioactive residues, Total of eye tissues, Mean",[1]; [5],0.550 Percent Dose
same,"Radioactive residues in Cornea, Mean",[1]; [6],0.471 ppm (μg-eq/g)
same,"Radioactive residues, Total of eye tissues, Mean",[1]; [6],0.228 Percent Dose
same,"Radioactive residues, Total of eye tissues, Mean","[1]; Group E, 12 hr. post-dose, 0.07% pH 7.8, 50 μL per eye topical",0.107 Percent Dose
same,"Radioactive residues, Total of eye tissues, Mean","[1]; Group F, 24 hr. post-dose, 0.07% pH 7.8, 50 μL per eye topical",0.034 Percent Dose
same,Tissues with the highest concentrations of drug-derived radioactivity,"[1]; mean ppm (μg/g), 24 hour study period","cornea, conjunctiva, and sclera"
same,Mortality/Morbidity,"[2]; Group A, necropsy 1 hour post-dose",0/3
same,Mortality/Morbidity,"[2]; Group B, necropsy 2 hours post-dose",0/3
same,Mortality/Morbidity,"[2]; Group C, necropsy 4 hours post-dose",0/3
same,Mortality/Morbidity,"[2]; Group D, necropsy 8 hours post-dose",0/3
same,Mortality/Morbidity,"[2]; Group E, necropsy 12 hours post-dose",0/3
same,Mortality/Morbidity,"[2]; Group F, necropsy 24 hours post-dose",0/3
same,"Mortality, whole study","[2]; all groups, up to 24 hours after 50 μL 0.07% per eye",no mortality
